Decomposition point and Weight reduction rate data for eight compounds are collected here from patent US9266905B2, “Color material and method for producing the same” (DAI NIPPON PRINTING CO., LTD., priority 2011, dated 2016).

Series [1] in a line: Measurement of decomposition point (TG-DTA). Format: physicochemical. Conditions: TG-DTA up to 800° C. at 10° C./minute, extrapolation temperature of the peak of the TG curve. The protocol:
About 5 mg of each of color materials A to S of Examples 1 to 9 and Comparative examples 1 to 10, was put in a quartz pan, and measured by means of a differential thermogravimetric analyzer (TG-DTA) (product name; TG8120; manufactured by: Rigaku Corporation) up to 800° C. at a heating rate of 10° C./minute, placing alumina on the quartz pan as a reference. The extrapolation temperature of the peak of the thus-obtained TG curve was used as the decomposition point. The temperature of the decomposition point can be used as an indicator of heat resistance.

A short description of series [2]: Measurement of thermal stability (weight reduction rate, TG-DTA). Format: physicochemical. Conditions: heated to 230° C. at 10° C./minute, kept 60 minutes at 230° C. The protocol: About 5 mg of each of color materials A to S of Examples 1 to 9 and Comparative examples 1 to 10, was put in a quartz pan and heated up to 230° C. at a heating rate of 10° C./minute, placing alumina on the quartz pan as a reference, by means of a differential thermogravimetric analyzer (TG-DTA) (product name; TG8120; manufactured by: Rigaku Corporation). After reaching 230° C., the temperature was kept for 60 minutes at 230° C. Then, a weight reduction rate was measured. The weight reduction rate was calculated by the following formula and can be used as an indicator of heat resistance. Weight reduction rate=(weight before heating−weight after heating)/weight before heating×100(%)

As to `CCN(CC)c1ccc(C(=C2C=CC(=[N+](CC)CC)C=C2)c2ccc(NCc3ccc(CNc4ccc(C(=C5C=CC(=[N+](CC)CC)C=C5)c5ccc(N(CC)CC)cc5)c5ccccc45)cc3)c3ccccc23)cc1` [Color material B], the Decomposition point in series [1] (listed as B) is 258 °C. Moreover, the Weight reduction rate in series [2] (listed as B) is given as −10.7%.

On to `CCN(CC)c1ccc(C(=C2C=CC(=[N+](CC)CC)C=C2)c2ccc(NCc3ccc(CNc4ccc(C(=C5C=CC(=[N+](CC)CC)C=C5)c5ccc(N(CC)CC)cc5)c5ccccc45)cc3)c3ccccc23)cc1` [Color material J], for which, in series [1] (listed as J), the Decomposition point was 248 °C. Moreover, the Weight reduction rate in series [2] (listed as J) was −35.1%.

In the case of `CCNc1ccc(C(=C2C=CC(=[N+](CC)CC)C=C2)c2ccc(N(CC)CC)cc2)c2ccccc12` [Color material K], the Decomposition point in series [1] (listed as K) was 237 °C. The Weight reduction rate in series [2] (listed as K) is −32.8%.

On to `CCNc1ccc(C(=C2C=CC(=[N+](CC)CC)C=C2)c2ccc(N(CC)CC)cc2)c2ccccc12` [Color material R], for which, in series [1] (listed as R), the Decomposition point is 259 °C. Besides, the Weight reduction rate in series [2] (listed as R) is on record as −30.5%.

For `CCNc1ccc(C(=C2C=CC(=[N+](CC)CC)C=C2)c2ccc(N(CC)CC)cc2)c2ccccc12` [Color material N], in series [1] (listed as N), the Decomposition point is 251 °C. The Weight reduction rate in series [2] (listed as N) was −38.3%.

For `CCN(CC)c1ccc(C(=C2C=CC(=[N+](CC)CC)C=C2)c2ccc(NCc3ccc(CNc4ccc(C(=C5C=CC(=[N+](CC)CC)C=C5)c5ccc(N(CC)CC)cc5)c5ccccc45)cc3)c3ccccc23)cc1` [Color material A], the Decomposition point in series [1] (listed as A) is 253 °C. For the same compound, in series [2] (listed as A), the Weight reduction rate is reported as −19.1%.

Regarding `CCNc1ccc(C(=C2C=CC(=[N+](CC)CC)C=C2)c2ccc(N(CC)CC)cc2)c2ccccc12` [Color material L], the Decomposition point in series [1] (listed as L) is 241 °C. The Weight reduction rate in series [2] (listed as L) is −31.8%.

Turning to `CCNc1ccc(C(=C2C=CC(=[N+](CC)CC)C=C2)c2ccc(N(CC)CC)cc2)c2ccccc12` [Color material Q], the Decomposition point in series [1] (listed as Q) is 258 °C. The Weight reduction rate in series [2] (listed as Q) was −30.1%.
